Measured values: publication PMC10866072, “Design, synthesis, molecular modelling and biological evaluation of novel 6-amino-5-cyano-2-thiopyrimidine derivatives as potent anticancer agents against leukemia and apoptotic inducers” (Journal of Enzyme Inhibition and Medicinal Chemistry, 2024)

Experiments:
KM12 = assay type: cell-based
HCC-2998 = assay type: cell-based
A498 = assay type: cell-based
SR = assay type: cell-based
[1] = MTT cytotoxicity on normal cells; assay type: cell-based; conditions: human, WI-38 cells (normal lung fibroblasts), WI-38 normal cells, mean ± SD of three experiments, read-out: IC50 (cytotoxic activity)
Method: The American Type Culture Collection provided WI-38 cells (normal lung cells). The cells were grown in DMEM with 10% heat-inactivated FBS (Hyclone), 10 µg/ml of insulin (Sigma), and 1% penicillin-streptomycin. The remaining chemicals and reagents were all from Sigma or Invitrogen. The MTT test was used to evaluate cytotoxicity, as described previously. Graph pad Prism software (San Diego, CA) was used to estimate the 50% inhibitory concentration (IC50) from dose response curve graphic plots for each conc.

PI3Kβ = molecular target: T1, PI3Kβ (Homo sapiens, UniProt P42338); experiment: PI3 Kinase Activity/Inhibitor Assay Kit; assay type: biochemical; conditions: mean of two independent replicates ± SD
T1 construct: purchased Millipore Corporation 17-493 (assay kit)
Method: (§3) In vitro PI3 kinases inhibitory activity assay
(§4) All buffers, working standards and samples were prepared.
(§5) A total of 5 μl/well 5X kinase reaction buffer was added following the addition of the substrate, then distilled water was added to fill up to 25 μl. After incubation for 1 h at room temperature, 25 μl of biotinylated PIP3/EDTA working solution was added to all wells except the buffer control. Instead, 25 μl tris-buffered saline (TBS) was added to the buffer control wells. A general receptor phosphoinsitides -1 working solution was added to all wells then, was incubated for 1 h at room temperature. After incubation, all wells were washed with 200 μl 1X TBS -Tween followed by addition of 50 μl (horseradish peroxide as econjugated streptavidin) SA -HRP then were incubated for 1 h at room temperature. All wells were washed using 100 μl 1X TBS -Tween and TBS followed by addition of 100 μl of substrate 3,3’,5,5’-tetramethylbenzidine and kept in dark for 5–20 min.

MDA-MB-231/ATCC = assay type: cell-based
Renal cancer cell lines = experiment: NCI-60 five-dose, subpanel
Text: A measure of a compound’s selectivity for a given cell line is the ratio created by dividing the full panel mean graph midpoints (MG-MID) concentration by the individual subpanel MG-MID concentrations (obtained as the average sensitivity of all the cell lines in a given subpanel to the test compound).
(§6) Assessment of selectivity of a compound depends on the ratio obtained by dividing the full panel MID ^a by their individual subpanel MID ^b (µM) where MID^a is the average sensitivity of all cell lines towards the test agent (µM).

[2] = test system: P53 protein in HL60 cells; experiment: Western blot; assay type: cell-based, human
Method: (§1) To assess the effect of compound 1c on protein expression of apoptotic and anti-apoptotic proteins levels, western blotting for selected candidate genes were performed[96]^,[97].Briefly, equal amounts (20 µg) of protein samples were mixed and boiled with SDS Loading buffer for 10 min, allowed to cool on ice and then loaded into SDS-polyacrylamide gel and separated by Cleaver electrophoresis unit (Cleaver, UK), transferred onto polyvinylidene fluoride (PVDF) membranes (BioRad) for 30 min using a Semi-dry Electro blotter (Biorad, USA) at 2.5 A and 25 V for 30 min. Additionally, the membrane was blocked by 5% non-fat dry milk solution in TBS-T for two hours at RT, in order to reduce non-specific protein interactions between the membrane and the antibody. Furthermore, the membrane was incubated overnight at 4 °C with primary antibodies, anti B-actin (Sigma ®), anti-Bax, anti-Bcl2, and anti-P53 (Abcam ®). The blots were then washed for three times (10 min each) with TBS-T. Finally, the membrane was incubated with the corresponding horse radish peroxidase (HRP)- linked secondary antibodies (Dako) for another hour at room temperature, followed by washing for three times (10 min each) with TBS-T. Then, the chemiluminescent reagent (ECL) was added according to the kit instructions and signals were detected by a CCD camera-based imager (Chemi Doc imager, Biorad, USA), and the bands intensities were measured by ImageLab (Biorad).

[3] = test system: Bcl2 protein in HL60 cells; experiment: Western blot; assay type: cell-based, human
Method: as §1

[4] = test system: Bcl2 protein in leukaemia SR cells; experiment: Western blot; assay type: cell-based, human
Method: as §1

[5] = test system: Bax protein in leukaemia SR cells; experiment: Western blot; assay type: cell-based, human
Method: as §1

[6] = test system: Bax protein in HL60 cells; experiment: Western blot; assay type: cell-based, human
Method: as §1

TK-10 = assay type: cell-based
PI3Kα = molecular target: T2, PI3Kα (Homo sapiens, UniProt P42336); experiment: PI3 Kinase Activity/Inhibitor Assay Kit; assay type: biochemical; conditions: mean of two independent replicates ± SD
T2 construct: purchased Millipore Corporation 17-493 (assay kit)
Method: as §3, §4, §5

HS 578T = assay type: cell-based
HL60 cells = experiment: Cell cycle analysis (propidium iodide, flow cytometry); assay type: cell-based, human; conditions: HL60, 48 h treatment
Method: (§2) Compound 1c was selected as a potent candidate, its effect on cell cycle phases of HL60 and leukaemia SR cells was investigated using propidium iodide staining and flow cytometric analysis according to the cell cycle kit (Abcam ®, ab139418-)[90]^,[91]^. Briefly, HL60 and leukaemia SR cells were cultured under optimum conditions. Afterwards, cells were treated by compound 1c for 48 h. Then, they were harvested, washed with PBS, and cell fixation was performed using ethanol on ice. Additionally, cells were pelleted at 500 xg for 5 min and supernatant was gently aspirated. Furthermore, fixed cells were washed by phosphate-buffered saline (PBS) and resuspended in 200 µl 1 x propidium iodide + RNAse staining solution and incubated in dark for 30 min. Finally, stained cells were tested by flow cytometer using FACSCalibur (Becton Dickinson Biosciences, CA, USA). Finally, Cell Quest software (Becton Dickinson Biosciences) was used to determine cell cycle distribution.

leukaemia SR cells = experiment: as above; assay type: cell-based, human; conditions: 48 h treatment
Method: as §2

Colon cancer cell lines = experiment: NCI-60 five-dose, subpanel
Text: (§7) Furthermore, the average sensitivity of all cell lines to the compound is termed as the full panel mean graph midpoints (MG-MID). The complete panel mean graph midpoints refers to the average sensitivity of all cell lines to the chemical (MG-MID). A measure of a compound’s selectivity for a given cell line is the ratio created by dividing the full panel mean graph midpoints (MG-MID) concentration by the individual subpanel MG-MID concentrations (obtained as the average sensitivity of all the cell lines in a given subpanel to the test compound).
as §6

HT29 = assay type: cell-based
CNS Cancer cell lines = experiment: NCI-60 five-dose, subpanel
Text: as §7, §6

NCI-H460 = assay type: cell-based
[7] = Homo sapiens, one dose 10^-5 M, 48 h
[8] = Homo sapiens, five-dose, read-out: LC50 (the source's name)
[9] = Homo sapiens, read-out: GI50 Subpanel MID^b

T2 sequence (P42336 whole entry, species assumed): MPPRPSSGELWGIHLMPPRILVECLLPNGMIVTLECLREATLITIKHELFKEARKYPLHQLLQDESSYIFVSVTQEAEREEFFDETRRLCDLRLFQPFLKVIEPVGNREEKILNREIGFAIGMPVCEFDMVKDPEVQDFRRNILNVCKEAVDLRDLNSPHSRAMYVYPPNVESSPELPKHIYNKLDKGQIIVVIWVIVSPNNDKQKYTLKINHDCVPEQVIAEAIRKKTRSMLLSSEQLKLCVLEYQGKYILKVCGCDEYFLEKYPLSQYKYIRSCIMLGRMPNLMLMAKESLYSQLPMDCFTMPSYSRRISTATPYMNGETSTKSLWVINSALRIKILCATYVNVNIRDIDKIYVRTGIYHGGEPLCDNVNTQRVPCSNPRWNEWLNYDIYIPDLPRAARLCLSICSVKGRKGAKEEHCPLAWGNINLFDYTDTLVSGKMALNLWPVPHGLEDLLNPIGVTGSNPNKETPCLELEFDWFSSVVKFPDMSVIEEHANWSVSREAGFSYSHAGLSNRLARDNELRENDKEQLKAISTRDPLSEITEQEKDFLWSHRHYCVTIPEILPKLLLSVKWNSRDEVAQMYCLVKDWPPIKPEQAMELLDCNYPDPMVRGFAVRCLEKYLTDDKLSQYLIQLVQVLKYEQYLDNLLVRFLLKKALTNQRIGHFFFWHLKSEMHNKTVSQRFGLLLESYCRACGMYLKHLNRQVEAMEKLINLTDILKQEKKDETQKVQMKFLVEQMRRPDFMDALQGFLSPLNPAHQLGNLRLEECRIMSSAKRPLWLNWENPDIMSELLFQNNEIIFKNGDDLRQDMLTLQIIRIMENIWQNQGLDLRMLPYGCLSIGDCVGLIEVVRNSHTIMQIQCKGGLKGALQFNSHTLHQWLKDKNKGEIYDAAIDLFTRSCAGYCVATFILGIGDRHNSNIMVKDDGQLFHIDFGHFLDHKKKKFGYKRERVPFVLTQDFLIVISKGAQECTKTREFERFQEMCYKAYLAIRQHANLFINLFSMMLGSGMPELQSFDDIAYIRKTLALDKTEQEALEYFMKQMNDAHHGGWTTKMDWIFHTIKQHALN
T2 sequence (P27986 whole entry partner, species assumed): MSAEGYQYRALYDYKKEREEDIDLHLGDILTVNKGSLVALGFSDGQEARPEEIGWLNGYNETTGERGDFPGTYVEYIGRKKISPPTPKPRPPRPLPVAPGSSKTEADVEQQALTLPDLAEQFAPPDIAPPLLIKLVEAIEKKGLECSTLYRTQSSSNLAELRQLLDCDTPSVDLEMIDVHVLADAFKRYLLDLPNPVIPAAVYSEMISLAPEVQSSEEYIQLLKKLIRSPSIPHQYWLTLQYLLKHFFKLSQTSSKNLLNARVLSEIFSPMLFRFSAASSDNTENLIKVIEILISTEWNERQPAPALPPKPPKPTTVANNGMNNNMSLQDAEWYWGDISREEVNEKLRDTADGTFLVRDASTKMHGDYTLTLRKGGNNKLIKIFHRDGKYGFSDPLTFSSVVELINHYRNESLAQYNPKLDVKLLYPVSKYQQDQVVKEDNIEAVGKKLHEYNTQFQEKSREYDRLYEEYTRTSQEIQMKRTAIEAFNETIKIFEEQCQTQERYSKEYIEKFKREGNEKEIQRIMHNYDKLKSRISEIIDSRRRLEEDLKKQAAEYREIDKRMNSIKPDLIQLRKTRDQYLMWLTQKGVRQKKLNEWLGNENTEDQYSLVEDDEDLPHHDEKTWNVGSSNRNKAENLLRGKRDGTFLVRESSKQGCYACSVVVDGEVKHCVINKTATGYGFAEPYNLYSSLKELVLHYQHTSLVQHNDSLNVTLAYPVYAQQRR
T1 sequence (P42338 whole entry, species assumed): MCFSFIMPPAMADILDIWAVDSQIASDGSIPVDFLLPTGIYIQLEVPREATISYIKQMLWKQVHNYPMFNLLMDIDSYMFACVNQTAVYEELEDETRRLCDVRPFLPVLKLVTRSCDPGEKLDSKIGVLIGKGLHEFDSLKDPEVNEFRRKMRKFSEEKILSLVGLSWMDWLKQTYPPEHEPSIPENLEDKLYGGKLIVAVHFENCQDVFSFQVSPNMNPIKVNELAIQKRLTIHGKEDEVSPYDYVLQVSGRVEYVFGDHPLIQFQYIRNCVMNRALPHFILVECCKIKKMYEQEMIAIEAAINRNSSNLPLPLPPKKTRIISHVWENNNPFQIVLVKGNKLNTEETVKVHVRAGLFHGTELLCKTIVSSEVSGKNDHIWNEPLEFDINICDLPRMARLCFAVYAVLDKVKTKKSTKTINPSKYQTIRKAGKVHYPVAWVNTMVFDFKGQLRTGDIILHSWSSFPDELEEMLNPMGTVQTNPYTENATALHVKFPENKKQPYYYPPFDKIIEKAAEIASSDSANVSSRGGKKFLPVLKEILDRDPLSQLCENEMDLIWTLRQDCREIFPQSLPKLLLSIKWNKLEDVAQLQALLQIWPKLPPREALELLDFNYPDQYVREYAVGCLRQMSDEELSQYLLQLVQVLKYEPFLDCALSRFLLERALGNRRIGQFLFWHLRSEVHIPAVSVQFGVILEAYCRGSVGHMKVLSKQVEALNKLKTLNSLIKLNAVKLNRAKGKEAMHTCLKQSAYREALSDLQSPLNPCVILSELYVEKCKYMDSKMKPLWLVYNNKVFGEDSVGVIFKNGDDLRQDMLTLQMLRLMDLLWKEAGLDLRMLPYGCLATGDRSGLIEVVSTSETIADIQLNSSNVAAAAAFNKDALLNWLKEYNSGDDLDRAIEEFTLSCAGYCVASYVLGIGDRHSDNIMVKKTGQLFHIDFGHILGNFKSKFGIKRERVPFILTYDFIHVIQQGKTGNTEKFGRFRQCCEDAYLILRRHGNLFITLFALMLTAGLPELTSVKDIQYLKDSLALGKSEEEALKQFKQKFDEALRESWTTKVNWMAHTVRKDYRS
T1 sequence (P27986 whole entry partner, species assumed): as the sequence (P27986 whole entry partner, species assumed) above

Question: With N#Cc1c(N)nc(S)nc1-c1ccc(Cl)cc1Cl [Compound 1c, 4-Amino-6–(2,4-dichlorophenyl)-2-mercaptopyrimidine-5-carbonitrile] as the compound, how does the GI50 (KM12; Homo sapiens, five-dose) read?
Answer: Its GI50 is 19 µM.

Question: What about the LC50 (KM12; Homo sapiens, five-dose) of the same compound?
Answer: The LC50 was 80.1 µM.

Question: What about the % growth at 10 µM (KM12; [7]) of the same compound?
Answer: Its % growth at 10 µM is 49.5%.

Question: What about the TGI (KM12; five-dose) of the same compound?
Answer: Its TGI is 39.00 µM.

Question: And the GI50 (HCC-2998; Homo sapiens, five-dose)?
Answer: The GI50 was 13 µM.

Question: And the CC50 (HCC-2998; [8])?
Answer: Its CC50 is 51.5 µM.

Question: What about the % growth at 10 µM (HCC-2998; [7]) of the same compound?
Answer: The % growth at 10 µM was 83.3%.

Question: And the TGI (HCC-2998; five-dose)?
Answer: Its TGI is 25.90 µM.

Question: And the GI50 (A498; Homo sapiens, five-dose)?
Answer: Its GI50 is 19.8 µM.

Question: What about the LC50 (A498; Homo sapiens, five-dose) of the same compound?
Answer: The LC50 was 78.5 µM.

Question: And the % growth at 10 µM (A498; [7])?
Answer: Its % growth at 10 µM is 137%.

Question: What about the TGI (A498; five-dose) of the same compound?
Answer: The TGI was 39.40 µM.

Question: What about the GI50 (SR; Homo sapiens, five-dose) of the same compound?
Answer: Its GI50 is 0.14 µM.

Question: And the CC50 (SR; [8])?
Answer: The CC50 was greater than 100 µM.

Question: And the percent cell growth at 10 µM (SR; [7])?
Answer: Its percent cell growth at 10 µM is 2.54%.

Question: And the TGI (SR; five-dose)?
Answer: Its TGI is 23.70 µM.

Question: And the IC50 [1]?
Answer: The IC50 was 43.6 ± 1.2 µM.

Question: And the IC50 (PI3Kβ)?
Answer: Its IC50 is 0.55 ± 0.002 µM.

Question: What about the GI50 (MDA-MB-231/ATCC; Homo sapiens, five-dose) of the same compound?
Answer: The GI50 was 13.1 µM.

Question: And the LC50 (MDA-MB-231/ATCC; Homo sapiens, five-dose)?
Answer: The LC50 was 58.1 µM.

Question: And the % growth at 10 µM (MDA-MB-231/ATCC; [7])?
Answer: The % growth at 10 µM was 51.9%.

Question: And the TGI (MDA-MB-231/ATCC; five-dose)?
Answer: The TGI was 27.60 µM.

Question: And the GI50 (Renal cancer cell lines; [9])?
Answer: Its GI50 is 14.2 µM.

Question: What about the “Selectivity ratio (full panel MID^a / subpanel MID^b, GI50 level)” value (Renal cancer cell lines; renal cancer) of the same compound?
Answer: Its value is 0.9.

Question: And the “P53 protein expression vs untreated control” value [2]?
Answer: Its value is “increased the expression of P53 protein significantly”.

Question: And the “Bcl2 protein expression vs untreated control” value [3]?
Answer: The value was “significantly inhibited the expression”.

Question: What about the “Bcl2 protein expression vs untreated control” value [4] of the same compound?
Answer: Its value is “significantly inhibited the expression”.

Question: What about the “Bax protein expression vs untreated control” value [5] of the same compound?
Answer: Its value is “significantly increased the expression”.

Question: What about the “Bax protein expression vs untreated control” value [6] of the same compound?
Answer: Its value is “significantly increased the expression”.

Question: What about the GI50 (TK-10; Homo sapiens, five-dose) of the same compound?
Answer: The GI50 was 21.5 µM.

Question: What about the LC50 (50% lethal concentration) (TK-10; Homo sapiens, five-dose) of the same compound?
Answer: Its LC50 (50% lethal concentration) is greater than 100 µM.

Question: And the % cell growth at 10 µM (TK-10; [7])?
Answer: Its % cell growth at 10 µM is 114%.

Question: And the TGI (TK-10; five-dose)?
Answer: Its TGI is 50.20 µM.

Question: What about the IC50 (PI3Kα) of the same compound?
Answer: The IC50 was 0.88 ± 0.005 µM.

Question: What about the GI50 (HS 578T; Homo sapiens, five-dose, HS 578 T) of the same compound?
Answer: Its GI50 is 18.8 µM.

Question: What about the CC50 (HS 578T; Homo sapiens, five-dose, HS 578 T, read-out: LC50 (the source's name)) of the same compound?
Answer: The CC50 was greater than 100 µM.

Question: And the activity at 10 µM (HS 578T; Homo sapiens, one dose 10^-5 M, 48 h, HS 578T, read-out: % growth)?
Answer: Its activity at 10 µM is 75.3%.

Question: And the TGI (HS 578T; five-dose, HS 578 T)?
Answer: The TGI was 92.60 µM.

Question: And the “% cells in G0/G1 (%DIP G1)” value (HL60 cells)?
Answer: Its value is 57.37%.

Question: And the “% cells in S phase” value (HL60 cells)?
Answer: Its value is 33.07%.

Question: What about the “% cells in G1 (%DIP G1)” value (leukaemia SR cells) of the same compound?
Answer: Its value is 55.22%.

Question: What about the “% cells in S phase” value (leukaemia SR cells) of the same compound?
Answer: The value was 31.89%.

Question: What about the GI50 (Colon cancer cell lines; [9]) of the same compound?
Answer: Its GI50 is 10.9 µM.

Question: What about the “Selectivity ratio (full panel MID^a / subpanel MID^b, GI50 level)” value (Colon cancer cell lines; colon cancer) of the same compound?
Answer: Its value is 1.2.

Question: What about the GI50 (HT29; Homo sapiens, HT-29, five-dose) of the same compound?
Answer: Its GI50 is 13.8 µM.

Question: And the CC50 (HT29; Homo sapiens, HT-29, five-dose, read-out: LC50 (the source's name))?
Answer: The CC50 was 68.9 µM.

Question: And the % growth at 10 µM (HT29; Homo sapiens, HT-29, one dose 10^-5 M, 48 h)?
Answer: The % growth at 10 µM was 24.7%.

Question: What about the TGI (HT29; five-dose) of the same compound?
Answer: Its TGI is 30.80 µM.

Question: What about the “Selectivity ratio (full panel MID^a / subpanel MID^b, GI50 level)” value (CNS Cancer cell lines; CNS cancer) of the same compound?
Answer: The value was 1.04.

Question: And the GI50 (CNS Cancer cell lines; [9])?
Answer: The GI50 was 12.4 µM.

Question: What about the GI50 (NCI-H460; Homo sapiens, five-dose) of the same compound?
Answer: Its GI50 is 22.1 µM.

Question: And the CC50 (NCI-H460; [8])?
Answer: Its CC50 is greater than 100 µM.

Question: And the activity at 10 µM (NCI-H460; Homo sapiens, one dose 10^-5 M, 48 h, read-out: % growth)?
Answer: The activity at 10 µM was 82.6%.

Question: And the TGI (NCI-H460; five-dose)?
Answer: The TGI was 56.80 µM.
